Reference: ChEMBL document CHEMBL3632499, “Synthesis and Antiproliferative Activity Evaluation of the Disulfide-Containing Cyclic Peptide Thiochondrilline C and Derivatives” (J Nat Prod, 2015)
pEC50: −log10 of the molar value. Positions of bridges follow the written chain, without caps; N, C: chain ends. Non-standard residues stand in square brackets, D forms with d. Residues, ends and D or L forms follow the SMILES beside them. *: point of attachment. Quinaldoyl(3-OH) = O=C(c1nc2ccccc2cc1O)*; NMeC = CN[C@@H](CS)C(=O)O

Tested on: A549
Experiment: Cytotoxicity against human A549 cells
Assay type: functional, cell-based

SMILES: COC(=O)[C@H](CSC)N(C)C(=O)[C@@H]1CSSC[C@@H](NC(=O)c2nc3ccccc3cc2O)C(=O)NCC(=O)N1C ({Quinaldoyl(3-OH)}-[dC]G[NMeC][NMeC](Me)-OMe; disulfide 1-3)
- pEC50: 5.54
